Laboratory results published in patent US5422352A, “Slimming pharmaceutical composition” (Nycomed Dak A/S, priority 1989, dated 1995).
Where a name gives a salt, the structure may show the parent alone.

Tests used:
[1] = tested on: resting skeletal muscle; settings: in vivo; cited from earlier work
[2] = laboratory methods: fasting serum glucose, triglycerides, cholesterol in obese patients (Example 5); format: in vivo, human
Description: Blood and urine samples for laboratory tests were taken before entry, and after 12 and 24 weeks.
Metabolic factors: In order to evaluate changes in the glucose and lipid metabolism of the patients during the study, triglyceride acid (TGA), cholesterol and fasting glucose were analyzed.
All clinical-chemical analyses apart from TGA and test strips for urine, were carried out at Department of Clinical Chemistry, Hvidovre Hospital, in accordance with their routine methods and assays, including the department's running quality control. The methods and the assays are routine procedures and are well-documented (7,40-48). TGA was analyzed and test strips for urine assessed at the Department of Internal Medicine, Division of Endocrinology, Hvidovre Hospital's own laboratory following the same routine procedures as above (26).
(§1) The mean difference of blood pressure, heart rate and laboratory data from the initial values (week 0) at week 12 and at week 24 was compared to initial values for each treatment group by Students' one sample t-test (SAS). Comparison of the treatment groups at a particular visit was done by one-way analysis of variance (SAS.GLM). The difference from initial values was used in order to prevent chance events influencing the results. Patients with high values, for instance, who dropped out would thus influence the mean value at the next control, without a real difference being present.

[3] = ephedrine 50 mg; ephedrine plus caffeine 50 mg+100 mg; oral, 4 months; cited from earlier work
[4] = 18 weeks, 2+2+1 tablet per day; cited from earlier work
[5] = safety evaluation in healthy volunteers: side effects, blood pressure, heart rate (Example 2); format: in vivo, human
Description: Arterial blood pressure was measured in the right arm by a sphygmomanometer a.m. Riva-Rocci, and heart rate was determined by palpation of the peripheral heart rate in the ipsilateral radial artery. These measurements were performed after each sampling of blood.
A "Trimline" apparatus manufactured by PyMaH (Copenhagen) was used to measure the arterial blood pressure. A cuff 12-14 cm in width was employed. […] The diastolic blood pressure was determined as the manometer pressure when the Korotkoff sound quality changes from tapping to muffled.
At the end of each study comprising oral administration of the actual test substance, subjective feelings of side-effects were assessed by questioning the experimental subjects.

[6] = laboratory methods in healthy volunteers: serum glucose, NEFA, glycerol (Example 2); format: in vivo, human; settings: oral; for serum glucose (in words): vs placebo
Description: Through the indwelling antecubital cannula, blood was sampled without stasis in iced syringes. The blood samples were then centrifuged at 4° C. and nonesterified fatty acids (NEFA) were immediately extracted from the blood samples and later determined as described in (22). The concentration of glucose in plasma was determined using the glucose oxidase method (23), the concentration of glycerol in plasma was determined as described by Laurell and Tibbling (24), the concentration of lactate in plasma was described using the method described by Noll (25), and the concentration of triglyceride in plasma was determined as described by Giegel (26). Blood samples for the determination of methylxanthine metabolites was collected in tubes containing reduced glutathione and ethylene glycol-bis(β-aminoethyl)-N,N,N',N'-tetraacetic acid (EGTA). Samples were immediately centrifuged and the plasma was stored at -40° C. until the determination of methylxanthines was performed (see Example 4). Immunoreactive insulin, pancreatic glucagon and C-peptide concentrations were measured in the plasma samples using radioimmunoassay kits purchased from Novo, Copenhagen. All plasma aliquots for determination of pancreatic hormones and methylxanthine metabolites were coded and analyzed in a random order to avoid any systematic error due to the order of analysis. The concentrations of sodium and potassium in the plasma samples were determined by flame spectrophotometry.

[7] = blood pressure and heart rate in obese patients, 24 weeks (Example 5); format: in vivo, human; settings: week 24; for Average heart rate decrease / Average heart rate decrease, % of initial value: negative = increase
Description: Blood pressure was measured with a Trimline Sphygmomanometer (PyMaH) by the investigator every 4 weeks. After at least 10 minutes rest, the measurements were carried out in the right arm of the patient a.m. Riva-Rocci with the patient being positioned in a sitting position. A cuff of 14 to 16 cm width was employed. […] The diastolic blood pressure was determined at the manometer pressure when the Korotkoff sound quality changes from tapping to muffled.
The heart rate was determined by palpation of the peripheral heart rate in the right radial artery.
as §1

[8] = adverse drug reactions in obese patients, 24 weeks (Example 5); format: in vivo, human; settings: for Patients complaining of adverse drug reactions / Patients withdrawn due to adverse drug reactions: 24 weeks; for adverse reactions / withdrawal symptoms (in words): human, in vivo
Excerpt: 14 days after discontinuation of the treatment, a psychiatrist recorded any inconveniences the patient might have had during this period and physical and psychological symptoms were registered.

[9] = thermogenic effect: energy expenditure in healthy volunteers by indirect calorimetry (Example 2); format: in vivo, human; settings: for Mean energy expenditure during 3 hours: oral single dose, not placebo-corrected; for Energy expenditure greater than placebo: mean±SE, minimum figure; for thermogenic effect (in words): human, in vivo
Description: The study was conducted in two parts. The first part was designed as a placebo-controlled, double-blind trial on the effect of 3 different doses of caffeine, 3 different doses of ephedrine and 2 placebo samples. The order of the tests were not entirely randomized, but organized in a sequence that allowed testing for a carry-over effect.
6 healthy volunteers of normal weight (3 of each sex) aged between 20 and 32 were included after informed consent was obtained. The average age of the 6 volunteers was 25 (±1) years, height, 179 (±11) cm; body weight, 70 (±13) kg; percentage of overweight, -1.7 (±8.3) % and body fat, 13 (±3) kg. The numbers in parenthesis are the standard deviation. The percentages of overweight was calculated from the individual body weight (IBW) using the midpoint of the medium frame (MMF) given in the Metropolitan Life Insurance Company tables of desirable weights (1): [formula]
A. Treatment with ephedrine comprising capsules with 10 mg, 20 mg or 40 mg of ephedrine hydrochloride, respectively.
B. Treatment with caffeine comprising capsules with 100 mg, 200 mg or 400 mg of caffeine, respectively. […]
The capsules were administered orally as single doses and swallowed with 300 ml of tap water (20° C.).
All blood samples for determination of substrate, metabolite and hormone concentrations were collected form the antecubital vein. Blood samples were taken at -30, 0, 30, 60, 90, 120, 150 and 180 minutes relative to the capsule intake (time 0). The subjects breathed through a low-resistance Scuba one-way mouthpiece. After about 10 minutes of adaptation, expiratory gas was collected in Douglas bags for 10 minute periods. Gas collection was made after each blood sampling.
Energy expenditure was measured by indirect calorimetry. Expiratory gas was continuously analyzed for the content of oxygen and carbon dioxide with a Godart Rapox Oxygenmeter and a Beckman LB-1 Medical Gas Analyzer. Respiratory steady state was assumed to be present, when the end-expiratory carbon dioxide fraction was constant. Expiratory gas was collected in Douglas bags and analyzed for the content of oxygen and carbon dioxide with Radiometer gas-electrodes connected to an acid-base analyzer (PHM 71, Copenhagen, Denmark), and the volume of expiration gas was measured with a gas meter. […] The standard gasses were analyzed with a Scholander microtechnique with a measuring error on gas fraction being <0.0005%, i.e. the error on measurement of expired gas being within ±0.1-0.2% (19). […] A fixed protein catabolism was assumed, since the error on calculating the energy expenditure by omitting the exact correction from urinary nitrogen was negligible (20). The energy expenditure was calculated taking de novo lipogenesis into account (21).
The responses to a test substance were estimated separately for each subject as the difference between the integrated numerical area of the response curve (by a trapezoidal approach) and the rectangular area determined by the basal values. To estimate the predictive, theoretical effect of combinations of ephedrine and caffeine, the single dose responses were added after subtracting the average placebo response. This calculation was performed separately for each subject before statistical analysis. A two-way analysis of variance for randomized blocks was performed (28) to test differences between experimental periods within the same experiment and to test differences between the responses to different stimuli (test substances). Post-hoc testing was applied to compare two means (28).

[10] = weight reducing effect in obese patients, 24 weeks, double blind (Example 5); format: in vivo, human
Description: The study was designed as a double blind, randomised, parallel study with 4 treatment groups in a 2×2 factorial design.
All patients were treated with the trial medication and prescribed a 4.2 MJ/day diet for 24 weeks.
B. Ephedrine group: Ephedrine tablets containing 20 mg ephedrine hydrochloride.
C. Caffeine group: Caffeine tablets containing 200 mg caffeine.
The patients were prescribed 1 tablet 3 times daily one hour before meals together with a 4.2 MJ/day diet consisting of NUPO® protein nutrition powder (33) (1.6 MJ/day) and free additional choice of food (2.6 MJ/day) for 24 weeks.
The patients were weighed on a decimal scale by dietitians at each visit. A Seca electronic scale (model 707) was used. The weighing limit was 200 kg, with 100 g graduations. The scale was calibrated every week.
The statistical analysis of weight loss was based on the logarithm of the initial body weight minus logarithm of the body weight at the actual visit.
As the data was logarithmically transformed as expressed above, a negative value corresponds to a supra-additive effect. Nil corresponds to additive effect and a positive value corresponds to a sub-additive effect.

[11] = 3 ppm (3 mg/kg feed); cited from earlier work
[12] = week 12, difference from initial
[13] = week 24, difference from initial

| Structure (SMILES) | Mean difference in fasting serum glucose [2, 12] | Mean difference in serum triglycerides [2, 12] | Mean difference in fasting serum cholesterol [2, 13] | Mean difference in fasting serum glucose [2, 13] | Mean difference in serum triglycerides [2, 13] | serum nonesterified fatty acids and glycerol (in words) [6] | serum glucose (in words) [6] | Average diastolic blood pressure decrease [7] | Average diastolic blood pressure decrease, % of initial value [7] | Average systolic blood pressure decrease [7] | Average systolic blood pressure decrease, % of initial value [7] | Average heart rate decrease [7] | Average heart rate decrease, % of initial value [7] | Patients complaining of adverse drug reactions [8] | Patients withdrawn due to adverse drug reactions [8] | adverse reactions / withdrawal symptoms (in words) [8] | thermogenic effect (in words) [9] | further results |
| --- | --- | --- | --- | --- | --- | --- | --- | --- | --- | --- | --- | --- | --- | --- | --- | --- | --- | --- |
| CN[C@@H](C)[C@H](O)c1ccccc1 [Ephedrine, ephedrine hydrochloride] | -0.55 mmol/L | -0.14 mmol/L | -0.18 mmol/L | -0.46 mmol/L | -0.66 mmol/L | increased the concentrations of NEFA and glycerol in the serum | hyperglycemic effect | 6.9 mmHg | 8.6% | 8.7 mmHg | 7.0% | -3.1 BPM | -4.3% | 20 patients | 1 | 34 patient complained of hunger, especially those who had been treated with ephedrine | possess thermogenic activity | contribution of resting skeletal muscle to whole body thermogenesis induced [1]: at least 50%; weight loss (in words) [3]: no significant difference in weight loss; average weight loss [4]: 7.9 kg; systolic blood pressure and heart rate (in words) ([5]; 40 mg ephedrine hydrochloride): excessive increase in systolic blood pressure and heart rate; Energy expenditure/(placebo value) ([9]; 10 mg ephedrine hydrochloride): 3.5; Mean energy expenditure during 3 hours ([9]; 10 mg ephedrine hydrochloride): 22.2 kcal/3 h; Energy expenditure greater than placebo ([9]; 10 mg ephedrine hydrochloride): 16.0±10.9 kcal/3 h; Energy expenditure/(placebo value) ([9]; 20 mg ephedrine hydrochloride): 2.0; Mean energy expenditure during 3 hours ([9]; 20 mg ephedrine hydrochloride): 12.5 kcal/3 h; Energy expenditure greater than placebo ([9]; 20 mg ephedrine hydrochloride): 6.3±5.3 kcal/3 h; Energy expenditure/(placebo value) ([9]; 40 mg ephedrine hydrochloride): 3.0; Mean energy expenditure during 3 hours ([9]; 40 mg ephedrine hydrochloride): 18.3 kcal/3 h; Energy expenditure greater than placebo ([9]; 40 mg ephedrine hydrochloride): 12.1±4.9 kcal/3 h |
| Cn1c(=O)c2c(ncn2C)n(C)c1=O [Caffeine, caffeine] | -0.18 mmol/L | -0.11 mmol/L | -0.28 mmol/L | -0.42 mmol/L | -0.32 mmol/L | increased the concentrations of NEFA and glycerol in the serum | hyperglycemic effect | 8.9 mmHg | 11.0% | 9.3 mmHg | 7.3% | 5.7 BPM | 7.3% | 16 patients | 2 | Headache was reported by 27 patients, especially patients from the caffeine group | a significant relation between caffeine dose and thermogenic response (energy expenditure) | side effects (in words) ([5]; 400 mg caffeine): The incidence of side effects after administration of the active compounds and placebo, respectively, was not significant, except for caffeine 400 mg (p<0.01); Average weight loss of the whole group ([10]; 24 weeks): 11.7 kg; Weight loss of one strongly deviant patient ([10]; 24 weeks, excluded from analysis): 42.6 kg; Relative body weight ([10]; week 4, 1 tablet 3 times daily, 4.2 MJ/day diet): 95.5%; Relative body weight ([10]; week 8): 93.0%; Relative body weight ([10]; week 12): 90.4%; Relative body weight ([10]; week 16): 89.3%; Relative body weight ([10]; week 20): 88.0%; Relative body weight ([10]; week 24): 87.6%; Energy expenditure/(placebo value) ([9]; 100 mg caffeine): 2.5; Mean energy expenditure during 3 hours ([9]; 100 mg caffeine): 15.4 kcal/3 h; Energy expenditure greater than placebo ([9]; 100 mg caffeine): 9.2±5.7 kcal/3 h; Energy expenditure/(placebo value) ([9]; 200 mg caffeine): 2.2; Mean energy expenditure during 3 hours ([9]; 200 mg caffeine): 13.4 kcal/3 h; Energy expenditure greater than placebo ([9]; 200 mg caffeine): 7.2±6.0 kcal/3 h; Energy expenditure/(placebo value) ([9]; 400 mg caffeine): 6.2; Mean energy expenditure during 3 hours ([9]; 400 mg caffeine): 38.6 kcal/3 h; Energy expenditure greater than placebo ([9]; 400 mg caffeine): 32.4±8.2 kcal/3 h; thermogenic effect (in words) ([9]; listed as caffeine): possess thermogenic activity |
| CC(C)(C)NCC(O)c1ccc(O)c(CO)c1 (stereo not shown) [salbutamol] | – | – | – | – | – | – | – | – | – | – | – | – | – | – | – | – | – | fat and protein accretion (in words) [11]: decreases fat accretion and increases protein accretion in growing pigs |
